Source: patent US5908868A, “Retinol derivatives useful for enhancing immune response” (priority 1995, dated 1999)
“Also recorded” adds a separate entry of the source. Values belong to the compound of their own block, whether it stands above or below them.

Tests used:
fibroblasts = experiment: Expression of immediate early genes; format: cell-based; conditions: unpublished work
B lymphocytes = experiment: B cell growth/survival; format: cell-based; conditions: on a concentration basis
[1] = Chemical stability during extraction; format: physicochemical
5/2 = experiment: Retinol metabolism; format: in vitro ADME, human
Method: (§1) FBS. The FBS was preincubated at room temperature with 14.4 uCi [^3 H
(§2) retinol (NEN) for 4 h. The cell pellet was washed twice with PBS. The
(§3) retinoid were extracted according to MClean et al. 90 and separated on an
(§4) analytical c18 reverse phase column according to FIG. 7. The DPM wer
(§5) determined using an online scintillation counter.

N-tera2 = experiment: Retinol metabolism; format: in vitro ADME, human
Method: as §1, §2, §3, §4, §5

Raji (37°) = experiment: Retinol metabolism; format: in vitro ADME, human
Method: as §1, §2, §3, §4, §5

SKL3 = experiment: Retinol metabolism; format: in vitro ADME, human
Method: as §1, §2, §3, §4, §5

SK-N-SH = experiment: Retinol metabolism; format: in vitro ADME, human
Method: as §1, §2, §3, §4, §5

Hela = experiment: Retinol metabolism; format: in vitro ADME, human
Method: as §1, §2, §3, §4, §5

Raji (4°) = experiment: Retinol metabolism; format: in vitro ADME, human
Method: as §1, §2, §3, §4, §5

Ket = experiment: Retinol metabolism; format: in vitro ADME, human
Method: as §1, §2, §3, §4, §5

P388D.1 = experiment: Retinol metabolism; format: in vitro ADME, mouse
Method: as §1, §2, §3, §4, §5

EL-4 = experiment: Retinol metabolism; format: in vitro ADME, mouse
Method: as §1, §2, §3, §4, §5

SLA = experiment: Retinol metabolism; format: in vitro ADME, mouse
Method: as §1, §2, §3, §4, §5

thymocytes [2] = experiment: Growth-stimulating effect of retinol on anti-CD3 activated thymocytes in the presence of interleukins; format: cell-based, BALB/c mouse; conditions: 3 days
thymocytes [3] = experiment: Proliferation of Con A activated thymocytes in serum-free medium; format: cell-based, BALB/c mouse; conditions: Con A 0.5 μg/ml, retinol 3×10^-6 M, ITLB
Method: Purified thymocytes (5×10^5 cells/well) were stimulated by TCR crosslinking with immobilized anti-CD3e antibody (FIG. 15A) or 0.4 μg/ml Con A (FIG. 15B) in serum-free ITLB medium. The indicated amounts of retinoids were added either once at the beginning of the experiment (marked as "1x") or every 12 hours thereafter (marked as "6x"). DNA synthesis was measured after 72 hours by tritiated thymidine uptake as described.
Thymuses of 3 to 6-week-old BALB/c mice were teased in serum-free RPMI medium supplemented with 1% BSA, 10^-6 M linoleic acid and antibiotics. […] Cell viability was evaluated by trypan blue dye exclusion. To determine the extent of depletion of accessory cells, samples were stained with FITC-conjugated anti-Fc receptor antibody and analyzed by flow cytometry on a FACScan instrument (Becton Dickinson). No FcR-bearing cells were detected by this procedure.
Cells were cultured in serum-free medium, referred to as ITLB, containing RPMI 1640 supplemented with 8×10^-7 M insulin (5 μg/ml), 7×10^-8 M transferrin (5 μg/ml), 2×10^-6 M linoleic acid, 2×10^-6 M delipidated BSA (0.12 mg/ml), 2 mM L-glutamine, 1 mM sodium pyruvate and antibiotics. […] The optimal concentration for stimulation of T cells was determined for each batch of anti-CD3 mAb and Con A. The optimal range of Con A was particularly narrow in serum-free medium (0.5-0.2 μg/ml) and varied with the cell density used. […]

26 mammalian cells = experiment: 14HRR production from 3H retinol in mammalian cell lines; format: in vitro ADME; conditions: 3H retinol bound to fetal calf serum
From the text: The use of ^3 H retinol bound to fetal calf serum was used as an assay to test for P3 in other cell lines.
The use of ^3 H retinol bound to fetal calf serum was used as an assay to test for 14HRR in other cell lines.

- stability in chloroform ([1]; chloroform): unstable in chloroform
SMILES: CC(C=CC=C(C)C(O)CO)=CC=C1C(C)=CCCC1(C)C (centres unmarked) [14HRR, 14-hydroxy-4,14-retro-retinol]
- expression of immediate early genes (fibroblasts): facilitates the expression of immediate early genes in fibroblasts
- activity relative to all-trans retinol in B cells (B lymphocytes): 10-30 fold more active
- stability to acid extraction ([1]; acid extraction step): does not survive an acid extraction step

- Total cts. (5/2; 5/2): 5.7 × 10^5 cts.
- Ester (% of taken up retinol) (5/2; 5/2, overnight): 24%
- P3 (% of taken up retinol) (5/2; 5/2, overnight): 4%
- Retinol (% of taken up retinol) (5/2; 5/2, overnight): 67%
- Total cts. (N-tera2; N-tera2): 13.5 × 10^5 cts.
- Ester (% of taken up retinol) (N-tera2; N-tera2, overnight): 97%
- P3 (% of taken up retinol) (N-tera2; N-tera2, overnight): 0.4%
- Retinol (% of taken up retinol) (N-tera2; N-tera2, overnight): 0.7%
- Total cts. (Raji (37°); 2.5 × 10^6 cells): 4.0 × 10^5 cts.
- Ester (% of taken up retinol) (Raji (37°); overnight): 14%
- P3 (% of taken up retinol) (Raji (37°); overnight): 3%
- Retinol (% of taken up retinol) (Raji (37°); overnight): 79%
- Total cts. (SKL3; SKL3): 1.6 × 10^5 cts.
- Ester (% of taken up retinol) (SKL3; SKL3, overnight): 24%
- P3 (% of taken up retinol) (SKL3; SKL3, overnight): 2%
- Retinol (% of taken up retinol) (SKL3; SKL3, overnight): 71%
- Total cts. (SK-N-SH): 2.0 × 10^5 cts.
- Ester (% of taken up retinol) (SK-N-SH; overnight): 25%
- P3 (% of taken up retinol) (SK-N-SH; overnight): 0.9%
- Total cts. (Hela): 1.0 × 10^5 cts.
- Ester (% of taken up retinol) (Hela; overnight): 20%
- P3 (% of taken up retinol) (Hela; overnight): 3%
- Retinol (% of taken up retinol) (Hela; overnight): 71%
- Total cts. (Raji (4°); 2.5 × 10^6 cells): 2.5 × 10^5 cts.
- Ester (% of taken up retinol) (Raji (4°); overnight): 0%
- P3 (% of taken up retinol) (Raji (4°); overnight): 0%
- Retinol (% of taken up retinol) (Raji (4°); overnight): 99%
- Total cts. (Ket): 4.6 × 10^5 cts.
- Ester (% of taken up retinol) (Ket; overnight): 41%
- P3 (% of taken up retinol) (Ket; overnight): 3%
- Retinol (% of taken up retinol) (Ket; overnight): 52%
- Total cts. (P388D.1; P388D.1): 1.4 × 10^5 cts.
- Ester (% of taken up retinol) (P388D.1; P388D.1, overnight): 26%
- P3 (% of taken up retinol) (P388D.1; P388D.1, overnight): 0.5%
- Retinol (% of taken up retinol) (P388D.1; P388D.1, overnight): 71%
- Total cts. (EL-4; EL-4): 2.8 × 10^5 cts.
- Ester (% of taken up retinol) (EL-4; EL-4, overnight): 44%
- P3 (% of taken up retinol) (EL-4; EL-4, overnight): 5%
- Retinol (% of taken up retinol) (EL-4; EL-4, overnight): 40%
- Total cts. (SLA): 6.1 × 10^5 cts.
- Ester (% of taken up retinol) (SLA; overnight): 9%
- P3 (% of taken up retinol) (SLA; overnight): 3%
- Retinol (% of taken up retinol) (SLA; overnight): 85%
SMILES: CC1=C(/C=C/C(C)=C/C=C/C(C)=C/CO)C(C)(C)CCC1 [retinol, all-trans retinol]
- CPM anti-CD3, 10^-6 M Retinol (thymocytes [2]): 79,247 ± 17,567 CPM
- thymocyte proliferation (thymocytes [3]): growing exponentially
- radioactivity peak at 14HRR (P3) position (26 mammalian cells): radioactivity peak at the position where 14HRR normally elutes; also recorded: radioactivity peak at the position where P3 normally elutes
